Results: publication PMC5902538, “Metabolic benefits of 1-(3-(4-(o-tolyl)piperazin-1-yl)propyl)pyrrolidin-2-one: a non-selective α-adrenoceptor antagonist” (Journal of Endocrinological Investigation, 2017)

Experiments:
Assay type in all cases: cell-based
α2A-adrenoceptor = target: T1, α2A-adrenoceptor (Homo sapiens, UniProt P08913); experiment: intrinsic activity (antagonist) assay in ready-to-use cells stably expressing the receptor (Invitrogen)
T1 construct: gene ADRA2A
T1 sequence (P08913 1-465): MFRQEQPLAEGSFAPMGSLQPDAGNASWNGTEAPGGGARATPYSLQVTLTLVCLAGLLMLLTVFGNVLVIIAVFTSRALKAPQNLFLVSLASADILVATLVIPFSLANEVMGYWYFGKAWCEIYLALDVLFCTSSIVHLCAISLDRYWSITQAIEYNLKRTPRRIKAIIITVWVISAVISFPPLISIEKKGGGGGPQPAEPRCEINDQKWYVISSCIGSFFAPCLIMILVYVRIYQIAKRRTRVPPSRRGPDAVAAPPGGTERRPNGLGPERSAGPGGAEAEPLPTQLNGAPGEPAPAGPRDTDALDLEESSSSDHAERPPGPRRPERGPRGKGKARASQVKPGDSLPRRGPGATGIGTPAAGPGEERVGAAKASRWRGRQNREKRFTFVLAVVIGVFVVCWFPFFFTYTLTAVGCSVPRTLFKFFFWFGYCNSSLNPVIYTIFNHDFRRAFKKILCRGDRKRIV

α2B-adrenoceptor = target: T2, α2B-adrenoceptor (Homo sapiens, UniProt P18089); experiment: intrinsic activity (antagonist) assay in ready-to-use cells stably expressing the receptor (Perkin Elmer)
T2 construct: gene ADRA2B
T2 sequence (P18089 1-450): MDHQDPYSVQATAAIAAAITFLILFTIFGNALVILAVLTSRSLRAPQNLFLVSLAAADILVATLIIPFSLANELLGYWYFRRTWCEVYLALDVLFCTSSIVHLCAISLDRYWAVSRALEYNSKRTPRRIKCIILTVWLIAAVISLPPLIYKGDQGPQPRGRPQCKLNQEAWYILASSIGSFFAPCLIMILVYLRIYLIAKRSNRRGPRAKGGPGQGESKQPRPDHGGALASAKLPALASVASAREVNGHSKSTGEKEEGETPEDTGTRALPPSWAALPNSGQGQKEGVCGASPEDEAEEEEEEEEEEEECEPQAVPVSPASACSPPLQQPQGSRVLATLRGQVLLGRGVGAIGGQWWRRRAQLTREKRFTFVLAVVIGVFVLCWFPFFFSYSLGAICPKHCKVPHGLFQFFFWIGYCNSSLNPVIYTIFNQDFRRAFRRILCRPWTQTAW

α1B-adrenoceptor = target: T3, α1B-adrenoceptor (Homo sapiens, UniProt P35368); experiment: as above
T3 construct: gene ADRA1B
T3 sequence (P35368 1-520): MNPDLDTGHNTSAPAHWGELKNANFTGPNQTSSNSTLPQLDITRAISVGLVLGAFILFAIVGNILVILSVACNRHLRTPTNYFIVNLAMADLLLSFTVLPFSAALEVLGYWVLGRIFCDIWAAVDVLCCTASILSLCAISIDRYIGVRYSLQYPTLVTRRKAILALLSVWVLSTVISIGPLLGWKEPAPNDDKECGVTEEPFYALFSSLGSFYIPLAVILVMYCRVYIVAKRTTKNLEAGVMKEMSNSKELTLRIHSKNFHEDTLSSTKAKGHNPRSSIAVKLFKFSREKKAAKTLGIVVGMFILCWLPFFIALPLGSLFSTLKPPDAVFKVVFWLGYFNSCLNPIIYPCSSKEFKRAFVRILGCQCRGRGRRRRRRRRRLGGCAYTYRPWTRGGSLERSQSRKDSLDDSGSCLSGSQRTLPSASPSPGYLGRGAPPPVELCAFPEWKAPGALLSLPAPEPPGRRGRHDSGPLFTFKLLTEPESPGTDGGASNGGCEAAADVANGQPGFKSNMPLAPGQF

α1A-adrenoceptor = target: T4, α1A-adrenoceptor (Homo sapiens, UniProt P35348); experiment: intrinsic activity (antagonist) assay in ready-to-use cells stably expressing the receptor (Invitrogen)
T4 construct: gene ADRA1A
T4 sequence (P35348 1-466): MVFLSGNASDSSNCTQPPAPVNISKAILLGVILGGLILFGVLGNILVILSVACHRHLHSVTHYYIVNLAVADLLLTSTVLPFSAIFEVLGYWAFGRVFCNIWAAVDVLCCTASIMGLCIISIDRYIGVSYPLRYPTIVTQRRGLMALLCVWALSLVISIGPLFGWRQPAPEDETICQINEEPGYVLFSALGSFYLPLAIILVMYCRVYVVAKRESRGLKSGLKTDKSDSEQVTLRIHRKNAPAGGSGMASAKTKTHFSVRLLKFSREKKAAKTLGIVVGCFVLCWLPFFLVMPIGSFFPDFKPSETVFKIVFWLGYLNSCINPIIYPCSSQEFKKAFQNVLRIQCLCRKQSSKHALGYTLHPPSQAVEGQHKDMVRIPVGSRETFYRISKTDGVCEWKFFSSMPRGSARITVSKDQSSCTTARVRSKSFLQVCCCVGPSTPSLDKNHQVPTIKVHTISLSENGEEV

IC50 (α2A-adrenoceptor): 213 ± 32 nM | IC50 (α2B-adrenoceptor): 2070 ± 690 nM | IC50 (α1B-adrenoceptor): 32.6 ± 0.69 nM | IC50 (α1A-adrenoceptor): 42.5 ± 11.2 µM
SMILES: Cc1ccccc1N1CCN(CCCN2CCCC2=O)CC1 [EP-47, 1-(3-(4-(o-tolyl)piperazin-1-yl)propyl)pyrrolidin-2-one]
